Assay results taken from patent US9145375B2, “Quinazolinone compounds” (PRANA BIOTECHNOLOGY LIMITED, priority 2008, dated 2015).
Converted amounts (≈) assume the structure as drawn. “And” between values parts separate entries of the source, which are not always exact repeats. Identical values can stand only once. Like-named read-outs stand apart in the source and are kept apart here.

Tests used:
[1] = Plasma Protein Binding, human; type: in vitro ADME
[2] = Mouse Plasma Conc.; type: in vivo; conditions: given as 'Up to'
[3] = Equilibrium Solubility (pH 2-7); type: physicochemical; conditions: for solubility thermodynamic: aqueous buffer, thermodynamic from solid
[4] = target: T1, CYP2C9 (Homo sapiens, UniProt P11712); experiment: CYP450 inhibition, specific substrate approach in human liver microsomes: CYP2C9; type: in vitro ADME
T1 construct: using a specific substrate approach in human liver microsomes; from tissue; host or cells: human liver microsomes
T1 sequence (P11712 whole entry): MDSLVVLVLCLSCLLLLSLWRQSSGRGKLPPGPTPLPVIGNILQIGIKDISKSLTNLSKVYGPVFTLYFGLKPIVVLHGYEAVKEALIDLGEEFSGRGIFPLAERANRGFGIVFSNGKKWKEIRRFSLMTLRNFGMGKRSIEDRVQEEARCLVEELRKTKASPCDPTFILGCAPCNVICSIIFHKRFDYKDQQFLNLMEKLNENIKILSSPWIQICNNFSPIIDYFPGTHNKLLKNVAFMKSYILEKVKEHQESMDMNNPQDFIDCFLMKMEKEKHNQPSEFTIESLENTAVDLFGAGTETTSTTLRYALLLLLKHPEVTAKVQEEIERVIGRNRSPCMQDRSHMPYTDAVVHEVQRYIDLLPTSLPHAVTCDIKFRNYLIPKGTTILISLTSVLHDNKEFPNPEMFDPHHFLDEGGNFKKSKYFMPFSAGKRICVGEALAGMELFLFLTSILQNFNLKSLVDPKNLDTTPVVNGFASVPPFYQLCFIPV
Method: CYP450 Isoform Inhibition Using a Specific Substrate Approach
The present study is a “Tier 2” screen to assess potential enzyme inhibition at a test compound concentration of 20 μM using a specific substrate approach in human liver microsomes.
The substrate specific enzyme inhibition study relies on the formation of a metabolite that is mediated by a specific CYP450 isoform using human liver microsomes. In the current study, the following reactions were monitored to assess interactions with specific CYP450 isoforms. A known inhibitor of each isoform was included in each assay as a positive control. The following IC50 values have been reported in the literature using equivalent assay conditions for each CYP450 isoform:
The reaction was initiated by the addition of an NADPH-regenerating system and was quenched by the addition of acetonitrile prior to determining the concentration (and apparent rate of formation) of the specific metabolite by LC/MS.
The IC50 was deemed to be the concentration at which there was a 50% reduction in the amount of metabolite formed, relative to the maximal extent of formation.

[5] = PK Studies in the Rat; type: in vivo; conditions: for half-life / Cmax / Tmax / AUC(0-t): plasma; for AUC(0-t): read-out: AUC0-24 h (converted)
Method: Assay 5. Pharmacokinetic Profile
The pharmacokinetic profile of test compounds is determined by the following assay: • Intravenous infusion of test compound; 2 mg/Kg in a suitable vehicle is […]; […] up to 24 hours. • Plasma concentrations of test compound are determined by suitable analytical method.
[formula] [formula] [formula] • CLtotal=total plasma clearance after IV administration • Vdβ=volume of distribution during the elimination phase after IV administration • BA=oral bioavailability • AUCIV=area under the plasma concentration versus time profile from time zero to infinity after IV administration • AUCoral=area under the plasma concentration versus time profile from time zero to infinity after oral administration • β=terminal elimination rate constant after IV administration Assay 6. Blood Brain Barrier Penetration

[6] = Metabolism in hepatocytes (predicted EH), dog; type: in vitro ADME
[7] = system: MPTP induced cell death in the SN; experiment: Parkinson's disease in vivo: MPTP model; set-up: species or system mouse; conditions: MPTP mice; for SN cell counts % of SSV / SN cell counts (cells +/− SD): test drug 30 mg/kg daily by oral gavage, several experiments; for Behaviour Pole Test, % (SSV = 0%) / Behaviour Pole Test, value ± SD: 30 mg/kg
Description: Parkinson's Disease In Vivo Technique: MPTP
MPTP (1-methyl 4-phenyl 1,2,3,6-tetrahydropyridine) is a chemical that is related to the opioid analgesic drugs. MPTP causes Parkinsonian side-effects. This occurs when MPTP is metabolized into MPP+, which kills neurons in a part of the brain called the substantia nigra. MPP+ interferes with mitochondria metabolism which leads to cell death and causes the build up of free radicals, toxic molecules that contribute further to cell destruction. MPTP has abilities to effect neuronal death in dopaminergic cells. Such effects lead to gross depletion of dopaminergic neurons which has severe implications on cortical control of complex movements.
General Experimental Design
Determining that MPTP Causes Continued Cell Death
Control (non tg) and transgenic mice receive five intraperitoneal injections of MPTP-HCl (23 gauge needle, 20 mg\kg of free base; Sigma, St. Louis, Mo., USA) dissolved in sterile 0.9% saline at 2-h interval in 1 day. Control animals receive five intraperitoneal injections of 0.9% saline. […] 20 C57BL6, 10 control and 10 hA53T tg are used to establish the precise dose of toxin at 2 weeks. Animals are allowed to recover for 1 week, 2 weeks, 1 month, 12, months and 18 months. The animals are killed and the brains removed for histological (stereological) and biochemical analysis.
Determining Whether Test Drug Reduces MPTP Induced Cell Death
Animals are treated as described above. They are treated with test drug 2 days after MPTP injection until death. Test drug is given by oral gavage at a daily dosage of 30 mg/kg. The time of killing the animals is dependant on the analysis of Experiment 1, normally one month or less.
Drugs are administered by oral gavage, at a daily dosage of 30 mg/kg.
Mice are assessed at prior to killing the mice for histological analysis.
Motor coordination and strength are assessed using the rotarod. The rotarod consists of a plastic rotating rod of 3.6 cm axial diameter partitioned by metal disks into five sections to allow the testing of multiple mice simultaneously. Mice are trained on two sessions where the rotation speed is ramped from 0-30 rpm over 5 min and one training session where rotation is a constant 16 rpm for 5 min. Within two days of training, animals are formally assessed on the rotarod rotating at 16 rpm for a maximum of 3 min: the time to fall on this single test is the recorded data point.
The pole is a 700 mm long, 5 mm diameter, wooden rod. The rod is supported at its base and held vertical. The total walking distance for the mice is 550 mm. The time taken for the mouse to descend the pole is measured with a maximum time of 120 s. If a mouse falls, the time is scored as 120 s.

Row | fraction unbound [1] | Mouse Plasma Conc. [2] [ng/mL] | pH dependence of equilibrium solubility [3] | solubility thermodynamic [3] [µg/mL] | IC50 [4] [µM] | Metabolism (Predicted EH), Hepatocytes: Dog [6] | % dose in urine ([5]; oral 20 mg/Kg) [% dose] | l24 ([5]; oral 20 mg/Kg) | Cmax ([5]; oral 20 mg/Kg) [µM] | Tmax ([5]; oral 20 mg/Kg) [h] | half-life ([5]; oral 20 mg/Kg) [h] | AUC(0-t) ([5]; oral 20 mg/Kg) [µM·h] | Compound | SN cell counts % of SSV [7] | SN cell counts (cells +/− SD) [7] | Behaviour Pole Test, % (SSV = 0%) [7] [%] | Behaviour Pole Test, value ± SD [7] | other results
1 | 0.023 to 0.024 | ≤ 8935 | not pH dependent | 2230 to 4730 (≈ 7.04 to 14.9 mM) | > 30 | Dog = 0.56 | 0.18 | l24 = 0.05-0.3 uM | 56.7 | 0.5 | 4.1 | 87 | CCNCc1nc2c(O)c(Cl)cc(Cl)c2c(=O)n1CC [Compound F4495] | 45.45% and 50.33% |  | 18.32 | (2.26 ± 0.82) | 
2 |  | ≤ 942.7 |  |  |  |  |  |  |  |  |  |  | C#CCN(C)Cc1nc2c(O)c(Cl)cc(Cl)c2c(=O)n1CC1CC1 [Compound F4387] |  |  |  |  | 
3 |  | ≤ 1115 |  |  |  |  |  |  |  |  |  |  | Br.CCn1c(CNC)nc2c(O)c(Cl)cc(Cl)c2c1=O [Compound F4486] | 24.11% | 2647.97 ± 814.44 cells | 38.46 | (1.81 ± 0.80) | 
4 |  | ≤ 3330.8 | not pH dependent | 224 to 1500 | > 30 | Dog = 0.66 | 0.19 | l24= 0.02-0.1 uM | 7.61 | 0.75 | 6.1 | 17.8 | Br.CCNCc1nc2c(O)c(Cl)cc(Cl)c2c(=O)n1C [Compound F4496] |  |  | 38.61 | (1.79 ± 1.13) | 

Further lines, the molecule ahead of its results:

Row | Compound | fraction unbound [1] | Mouse Plasma Conc. [2] [ng/mL] | pH dependence of equilibrium solubility [3] | solubility thermodynamic [3] [µg/mL] | IC50 [4] [µM] | Metabolism (Predicted EH), Hepatocytes: Dog [6] | % dose in urine ([5]; oral 20 mg/Kg) [% dose] | l24 ([5]; oral 20 mg/Kg) | Cmax ([5]; oral 20 mg/Kg) [µM] | Tmax ([5]; oral 20 mg/Kg) [h] | half-life ([5]; oral 20 mg/Kg) [h] | AUC(0-t) ([5]; oral 20 mg/Kg) [µM·h] | SN cell counts % of SSV [7] | SN cell counts (cells +/− SD) [7] | Behaviour Pole Test, % (SSV = 0%) [7] [%] | Behaviour Pole Test, value ± SD [7] | other results
5 | CN(C)Cc1nc2c(O)c(Cl)cc(Cl)c2c(=O)n1CC1CC1 [Compound F4267] | 0.005 | ≤ 1166.6 | pH dependent | 393 to 1700 (≈ 1.15 to 4.98 mM) | > 30 | Dog = 0.39 |  |  |  |  |  |  | 53.94% and 53.77% | 3331.96 ± 262.97 cells and 4315.11 ± 310.21 cells |  |  | l24 ([5]; oral 30 mg/Kg): l24 = 0.25-0.5 uM; half-life ([5]; oral 30 mg/Kg): 4.9 h
6 | CCN(CC)Cc1nc2c(O)c(Cl)cc(Cl)c2c(=O)n1CC1CC1 [Compound F4385] | 0.008 to 0.013 | ≤ 9074 | pH dependent | 683 to 1660 (≈ 1.84 to 4.49 mM) | > 30 | Dog = 0.37 | 0.05 | l24 = 0.5-1.5 u uM | 7.3 | 0.5 | 14.7 | 52.1 | 31.49% | 3690.00 ± 919.10 cells |  |  | 
7 | CNCc1nc2c(O)c(Cl)cc(Cl)c2c(=O)n1C [Compound F4161] | 0.043 | ≤ 510.4 | pH dependent | 196 to 746 (≈ 0.68 to 2.59 mM) |  | Dog = 0.56 |  |  |  |  |  |  | 28.05% | (2781.33 ± 382.88) cells | 2.55 | (2.85 ± 1.63) | Cmax ([5]; route and dose not given): 6.7 µM; Tmax ([5]; route and dose not given): 0.25 h; half-life ([5]; route and dose not given): 6.7 h; AUC(0-t) ([5]; route and dose not given): 14.1 µM·h; % dose in urine ([5]; route and dose not given): urine = 0.1%; l24 ([5]; route and dose not given): l24 = 0.045-0.15 μM
8 | CCn1c(CN(C)C)nc2c(O)c(Cl)cc(Cl)c2c1=O.Cl [Compound F4268] | 0.029 | ≤ 975.9 | not pH dependent | 3810 to 10200 | > 20 | Dog = 0.49 |  |  |  |  |  |  | 40.35% and 74.83% and 64.00% | 3797.33 ± 562.78 cells and 3065 ± 387 cells and 3163.87 ± 611.27 cells | −25.38 | (3.66 ± 1.87) | % dose in urine ([5]; oral 30 mg/Kg): 0.1% dose; Rel. Exposure ([5]; oral 30 mg/Kg): 51.9%; l24 ([5]; oral 30 mg/Kg): l24 = 0.02-0.05 uM; Cmax ([5]; oral 30 mg/Kg): 10 µM; Tmax ([5]; oral 30 mg/Kg): 0.333 h; half-life ([5]; oral 30 mg/Kg): 4.3 h
9 | CN(C)Cc1nc2c(O)c(Cl)cc(Cl)c2c(=O)n1C [Compound F4269, 5,7-Dichloro-2-(dimethylamino)methyl-8-hydroxy-3-methylquinazolin-4(3H)-one] | 0.054 to 0.059 | ≤ 492.1 | pH dependent | 166 to 2670 (≈ 0.549 to 8.84 mM) | > 30 | Dog = 0.54 | 0.1 | l24 = 0.01-0.03 uM | 3.3 | 0.375 | 5.6 | 5.5 | 26.76% | 3557.33 ± 556.55 cells |  |  | 
